Test results as given in patent US20200316090A1, “TARGETED THERAPEUTICS” (MADRIGAL PHARMACEUTICALS, INC., priority 2012, published 2020).
One block for each compound: values may come before it.

Legend:
HER2 = HER2 degradation in BT-474 cells (Example 3, Method 1 Western blot / Method 2 LI-COR imaging); type: cell-based, human; conditions: 0.5 μM, overnight
From the text: This example illustrates how a HER2 degradation assay may be used as a test to determine and select Hsp90-targeting moieties suitable for use in SDC-TRAPs of the invention, and further illustrates the ability of SDC-TRAPs to target cells preferentially expressing Hsp90. Such a test may further be used to determine the Hsp90 binding ability of SDC-TRAPs of the invention, as well as through competitive binding assays and cell-based Hsp90 client protein degradation assays known in the art.
After treatment, each cytoplasmic sample is prepared from 1×10^6 cells by incubation of cell lysis buffer (#9803, Cell Signaling Technology) on ice for 10 minutes. The resulting supernatant used as the cytosol fractions is dissolved with sample buffer for SDS-PAGE and run on a SDS-PAGE gel, blotted onto a nitrocellulose membrane by using semi-dry transfer. […]
Cells are then fixed in 4% phosphate-buffered paraformaldehyde for 30 minutes at room temperature and then permeabilized by washing five times with 0.1% Triton X-100 in PBS for 5 minutes at room temperature on a shaker. […] The raw data is normalized to DRAQS and the HER2 EC50 is calculated using XLfit™ […]

[1] = Tissue distribution of ganetespib in female CD-1 nu/nu mice bearing RERF human NSCLC xenografts; type: in vivo; conditions: mouse, tumor, ganetespib 50 mg/kg IV, DRD
From the text: Tissue Distribution of Ganetespib in Female CD-1 Nu/Nu Mice Bearing RERF Human NSCLC Xenografts
To confirm the distribution of ganetespib in blood, livers, kidneys, brains, hearts, lungs and tumors after IV administration of ganetespib to female CD-1 nu/nu mice bearing RERF human NSCLC xenografts, and to examine metabolic profiles of ganetespib in plasma, red blood cells, and above tissues.
Animals: female CD-1 nu/nu mice bearing RERF human NSCLC xenografts (N=3/group)
Formulation: 10% DMSO, 18% Cremophor RH40, 3.6% dextrose solution (DRD)
Bleeding time points: 5 min, 6, 24 hr
Collected tissues: blood (plasma and red blood cells (RBC)), liver, kidneys, brain, heart, lung, tumor
Protein precipitation: 50 μL of 10 times diluted plasma or RBC+150 μL ACN (10 mM NH4OAc), vortexed and centrifuged at 10000 rpm for 8 min; 150 μL supernatant+150 μL water (10 mM NH4OAc)
Protein precipitation: 100 μL homogenized tissue (1:3 tissue: PBS buffer)+100 μL ACN (10 mM NH4OAc), vortexed and centrifuged at 10000 rpm for 8 min

[2] = Artificial membrane permeability assay (PAMPA); conditions: for Papp at 5 h: Permeability (10^−6 cm/s)
[3] = Tissue distribution of SDC-TRAP and degradation products in tumor-bearing mice (plasma, tumor, heart); type: in vivo, Female SCID Mouse (H1975); conditions: mouse, in vivo
[4] = system: MCF-7 breast cancer cells; experiment: Mouse xenograft efficacy in an MCF-7 breast cancer model; type: in vivo, CD-1 nude mice
Procedure: MCF-7 breast cancer cells were purchased from ATCC. […] Fetal bovine serum was then added to the medium. The final concentration of fetal bovine serum was 10%. Cells were cultured at 37° C. and 5% CO2.
Mice that were not put on treatment were euthanized. Animals were sourced through CRL (Wilmington, Mass.).

in vitro = conditions: PAMPA, Permeability (cm/s)
[5] = Mouse plasma stability (Examples 16-18); type: in vitro ADME; conditions: 37° C.
[6] = 5 h incubation, peak area used in place of concentration, first table

Compound: C=CCNC1=C2C[C@@H](C)C[C@H](OC)[C@H](O)[C@@H](C)/C=C(\C)[C@H](OC(N)=O)[C@@H](OC)/C=C\C=C(/C)C(=O)NC(=CC1=O)C2=O [17-AAG]
- degradation of HER2 (HER2): partial degradation of HER2

- concentration at 5 min [1]: 2350 nM
Compound: CC(C)c1cc(-c2n[nH]c(=O)n2-c2ccc3c(ccn3C)c2)c(O)cc1O [ganetespib]

- Mass Retention (%) ([2]; same protocol, second table): 18.7%
- Kp at 1 h ([3]; female, SCID): 0.17
- Kp at 6 h ([3]; female, SCID): 2.25
- Kp at 24 h ([3]; female, SCID): 20.4
- Kp at 48 h ([3]; female, SCID): 6.85
- Kp at […] ([3]; female, SCID): 0.01
- concentration at 1 h ([3]; female, SCID): 52900 nM
- concentration at 6 h ([3]; female, SCID): 4000 nM
- concentration at 24 h ([3]; female, SCID): 359 nM
- concentration at 48 h ([3]; female, SCID): 1110 nM
- Tumor Conc. ([3]; female, SCID, 1 h): 9.12 nmol/g of tissue
- Tumor Conc. ([3]; female, SCID, 6 h): 8.98 nmol/g of tissue
- Tumor Conc. ([3]; female, SCID, 24 h): 7.32 nmol/g of tissue
- Tumor Conc. ([3]; female, SCID, 48 h): 7.60 nmol/g of tissue
Compound: CCc1c2c(nc3ccc(OC(=O)N4CCC(CCn5ccc6cc(-n7c(O)nnc7-c7cc(C(C)C)c(O)cc7O)ccc65)CC4)cc13)-c1cc3c(c(=O)n1C2)COC(=O)[C@]3(O)CC [SDC-TRAP-0063, 4,11-diethyl-4-hydroxy-3,14-dioxo-3,4,12,14-tetrahydro-1H-pyrano[3′,4′:6,7]indolizino[1,2-b]quinolin-9-yl 4-(2-(5-(3-(2,4-dihydroxy-5-isopropylphenyl)-5-hydroxy-4H-1,2,4-triazol-4-yl)-1H-indol-1-yl)ethyl)piperidine-1-carboxylate]
- selective targeting of tumor (tissue distribution in plasma, tumor and heart) [3]: selectively targets and accumulates in tumor cells
- suppression of increase in tumor volume ([4]; 150 mg/kg/1×wk versus 100 mg/kg/1×wk (FIG. 8)): appears to prolong the suppression of increase in tumor volume compared to a lower dose (100 mg/kg/1×wk)
- tumor growth suppression versus comparators ([4]; either dose (150 or 100 mg/kg/1×wk) (FIG. 8)): greater tumor growth suppression than effector moiety irinotecan alone, or unconjugated binding moiety ganetespib and effector moiety irinotecan administered together

Compound: CCc1c2c(nc3ccc(O)cc13)-c1cc3c(c(=O)n1C2)COC(=O)[C@]3(O)CC [SN-38, reference compound]
- Mass Retention (%) ([2]; 5 h incubation, first table): 38.2%
- Papp at 5 h [2, 6]: 0.643 ×10⁻⁶ cm/s
- Papp at 5 h ([2]; same protocol, second table): 1.87 ×10⁻⁶ cm/s
- Mass Retention (%) ([2]; same protocol, second table): 46.6%
- Kp at 6 h ([3]; female, SCID): 5.8
- Kp at 12 h ([3]; female, SCID): 105
- Kp at 24 h ([3]; female, SCID): 105
- Kp at […] ([3]; female, SCID): 0.13
- concentration at 6 h ([3]; female, SCID): 77.3 nM
- concentration at 12 h ([3]; female, SCID): 9.55 nM
- concentration at 24 h ([3]; female, SCID): 9.55 nM
- Tumor Conc. ([3]; female, SCID, 24 h): 1.07 nmol/g of tissue
- Tumor Conc. ([3]; female, SCID, 48 h): 0.046 nmol/g of tissue
- Papp (in vitro; [6]): 0.643 ×10⁻⁶ cm/s
- Papp (in vitro; same protocol, second table): 1.87 ×10⁻⁶ cm/s
- Mouse (5 μM) % Remaining 1 h (37° C.) * ([5]; 5 μM, 1 h, sum of both peaks of parent chromatogram): 87%
- Mouse (5 μM) % Remaining 19 h (37° C.) ([5]; 5 μM, 19 h): 52%
- Mouse (10 μM) % Remaining 1 h (37° C.) * ([5]; 10 μM, 1 h, sum of both peaks of parent chromatogram): 64%
